Values joined by “and” are separate entries in the source; they are usually repeats but may differ in a detail not shown here. Identical values can stand only once. Toxic doses and inconclusive results are not listed.
System: L1210 leukemia ip in BDF1 mice, survival T/C
Assay: NCI In Vivo Anticancer Drug Screen. Data for tumor model L1210 Leukemia (intraperitoneal) in B6D2F1 (BDF1) mice
Conditions: higher = longer survival
Procedure, shortened: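 In this screen, tumor-bearing mice given compound are compared to those given vehicle, and their survival values are reported as a treated-to-control quotient.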

Structure (SMILES): CCCCCCCCCCCCCCCC(=O)OCC1OC(n2ccc(N)nc2=O)C(O)C1O (stereo unspecified)
- T/C (endpoint: mean survival time, dose: 5.0 mg/kg/injection, schedule: Q01DX005 (ip), vehicle: other): 150 % of control
- T/C (endpoint: mean survival time, dose: 6.0 mg/kg/injection, schedule: Q01DX009 (ip), vehicle: saline with Tween-80): 200 % of control
- T/C (endpoint: mean survival time, dose: 8.8 mg/kg/injection, schedule: Q01DX009 (ip), vehicle: saline with Tween-80): 210 % of control
- T/C (endpoint: mean survival time, dose: 10.0 mg/kg/injection, schedule: Q01DX005 (ip), vehicle: other): 182 % of control and 183 % of control and 198 % of control
- T/C (endpoint: mean survival time, dose: 10.0 mg/kg/injection, schedule: Q06HX008 (ip), vehicle: other): 236 % of control
- T/C (endpoint: mean survival time, dose: 12.0 mg/kg/injection, schedule: Q01DX009 (ip), vehicle: saline with Tween-80): 242 % of control
- T/C (endpoint: mean survival time, dose: 12.5 mg/kg/injection, schedule: Q01DX001 (ip), vehicle: saline): 153 % of control
- T/C (endpoint: mean survival time, dose: 13.0 mg/kg/injection, schedule: Q01DX009 (ip), vehicle: saline with Tween-80): 244 % of control (2×) and 260 % of control
- T/C (endpoint: mean survival time, dose: 15.0 mg/kg/injection, schedule: Q01DX005 (ip), vehicle: other): 210 % of control and 231 % of control and 237 % of control
- T/C (endpoint: mean survival time, dose: 15.0 mg/kg/injection, schedule: Q01DX008 (ip), vehicle: other): 226 % of control
- T/C (endpoint: mean survival time, dose: 15.0 mg/kg/injection, schedule: Q12HX008 (ip), vehicle: other): 292 % of control
- T/C (endpoint: mean survival time, dose: 16.0 mg/kg/injection, schedule: Q06HX008 (ip), vehicle: other): 267 % of control
- T/C (endpoint: mean survival time, dose: 20.0 mg/kg/injection, schedule: Q01DX005 (ip), vehicle: other): 220 % of control and 224 % of control and 245 % of control
- T/C (endpoint: mean survival time, dose: 20.0 mg/kg/injection, schedule: Q01DX008 (ip), vehicle: other): 264 % of control
- T/C (endpoint: mean survival time, dose: 24.0 mg/kg/injection, schedule: Q01DX009 (oral), vehicle: saline with Tween-80): 119 % of control
- T/C (endpoint: mean survival time, dose: 25.0 mg/kg/injection, schedule: Q01DX001 (ip), vehicle: other): 153 % of control and 154 % of control and 174 % of control
- T/C (endpoint: mean survival time, dose: 25.0 mg/kg/injection, schedule: Q01DX001 (ip), vehicle: saline with Tween-80): 196 % of control
- T/C (endpoint: mean survival time, dose: 25.0 mg/kg/injection, schedule: Q01DX001 (ip), vehicle: saline): 165 % of control
- T/C (endpoint: mean survival time, dose: 25.0 mg/kg/injection, schedule: Q01DX005 (ip), vehicle: other): 243 % of control and 258 % of control and 273 % of control
- T/C (endpoint: mean survival time, dose: 25.0 mg/kg/injection, schedule: Q01DX008 (ip), vehicle: other): 267 % of control
- T/C (endpoint: mean survival time, dose: 25.0 mg/kg/injection, schedule: Q02DX008 (ip), vehicle: other): 270 % of control
- T/C (endpoint: mean survival time, dose: 25.0 mg/kg/injection, schedule: Q04DX008 (ip), vehicle: other): 245 % of control and 252 % of control
- T/C (endpoint: mean survival time, dose: 25.0 mg/kg/injection, schedule: Q06DX008 (ip), vehicle: other): 165 % of control and 187 % of control
- T/C (endpoint: mean survival time, dose: 25.0 mg/kg/injection, schedule: Q08DX008 (ip), vehicle: other): 178 % of control
- T/C (endpoint: mean survival time, dose: 27.0 mg/kg/injection, schedule: Q02DX005 (ip), vehicle: saline with Tween-80): 255 % of control
- T/C (endpoint: mean survival time, dose: 30.0 mg/kg/injection, schedule: Q01DX009 (ip), vehicle: saline with Tween-80): 270 % of control
- T/C (endpoint: mean survival time, dose: 30.0 mg/kg/injection, schedule: Q03HX008 (ip), vehicle: other): 192 % of control
- T/C (endpoint: mean survival time, dose: 32.0 mg/kg/injection, schedule: Q04DX003 (ip), vehicle: saline with Tween-80): 198 % of control
- T/C (endpoint: mean survival time, dose: 35.0 mg/kg/injection, schedule: Q01DX005 (ip), vehicle: other): 254 % of control and 255 % of control
- T/C (endpoint: mean survival time, dose: 36.0 mg/kg/injection, schedule: Q01DX009 (oral), vehicle: saline with Tween-80): 113 % of control
- T/C (endpoint: mean survival time, dose: 40.0 mg/kg/injection, schedule: Q03HX008 (ip), vehicle: other): 151 % of control and 167 % of control
- T/C (endpoint: mean survival time, dose: 49.0 mg/kg/injection, schedule: Q04DX003 (ip), vehicle: saline with Tween-80): 271 % of control
- T/C (endpoint: mean survival time, dose: 50.0 mg/kg/injection, schedule: Q01DX001 (ip), vehicle: other): 173 % of control and 187 % of control and 211 % of control
- T/C (endpoint: mean survival time, dose: 50.0 mg/kg/injection, schedule: Q01DX001 (ip), vehicle: saline with Tween-80): 165 % of control
- T/C (endpoint: mean survival time, dose: 50.0 mg/kg/injection, schedule: Q01DX001 (ip), vehicle: saline): 186 % of control and 207 % of control
- T/C (endpoint: mean survival time, dose: 50.0 mg/kg/injection, schedule: Q01DX009 (ip), vehicle: saline): 115 % of control
- T/C (endpoint: mean survival time, dose: 50.0 mg/kg/injection, schedule: Q04DX008 (ip), vehicle: other): 216 % of control
- T/C (endpoint: mean survival time, dose: 50.0 mg/kg/injection, schedule: Q06DX008 (ip), vehicle: other): 245 % of control and 283 % of control
- T/C (endpoint: mean survival time, dose: 50.0 mg/kg/injection, schedule: Q08DX008 (ip), vehicle: other): 283 % of control and 293 % of control
- T/C (endpoint: mean survival time, dose: 60.0 mg/kg/injection, schedule: Q02DX005 (ip), vehicle: saline with Tween-80): 182 % of control
- T/C (endpoint: mean survival time, dose: 64.0 mg/kg/injection, schedule: Q04DX003 (oral), vehicle: saline with Tween-80): 101 % of control
- T/C (endpoint: mean survival time, dose: 67.0 mg/kg/injection, schedule: Q01DX001 (ip), vehicle: saline with Tween-80): 162 % of control and 220 % of control
- T/C (endpoint: mean survival time, dose: 70.0 mg/kg/injection, schedule: Q01DX001 (ip), vehicle: saline with Tween-80): 239 % of control
- T/C (endpoint: mean survival time, dose: 75.0 mg/kg/injection, schedule: Q02DX004 (ip), vehicle: other): 244 % of control
- T/C (endpoint: mean survival time, dose: 90.0 mg/kg/injection, schedule: Q02DX004 (ip), vehicle: other): 283 % of control
- T/C (endpoint: mean survival time, dose: 98.0 mg/kg/injection, schedule: Q04DX003 (oral), vehicle: saline with Tween-80): 106 % of control
- T/C (endpoint: mean survival time, dose: 100.0 mg/kg/injection, schedule: Q01DX001 (ip), vehicle: other): 220 % of control and 253 % of control and 281 % of control
- T/C (endpoint: mean survival time, dose: 100.0 mg/kg/injection, schedule: Q01DX001 (ip), vehicle: saline): 276 % of control and 293 % of control
- T/C (endpoint: mean survival time, dose: 100.0 mg/kg/injection, schedule: Q01DX009 (ip), vehicle: saline): 96 % of control
- T/C (endpoint: mean survival time, dose: 100.0 mg/kg/injection, schedule: Q02DX008 (ip), vehicle: other): 194 % of control
- T/C (endpoint: mean survival time, dose: 100.0 mg/kg/injection, schedule: Q04DX008 (ip), vehicle: other): 286 % of control
- T/C (endpoint: mean survival time, dose: 120.0 mg/kg/injection, schedule: Q03DX004 (ip), vehicle: other): 235 % of control
- T/C (endpoint: mean survival time, dose: 140.0 mg/kg/injection, schedule: Q01DX001 (oral), vehicle: saline with Tween-80): 98 % of control
- T/C (endpoint: mean survival time, dose: 146.0 mg/kg/injection, schedule: Q04DX003 (oral), vehicle: saline with Tween-80): 106 % of control
- T/C (endpoint: mean survival time, dose: 150.0 mg/kg/injection, schedule: Q04DX008 (ip), vehicle: other): 233 % of control and 235 % of control
- T/C (endpoint: mean survival time, dose: 150.0 mg/kg/injection, schedule: Q08DX008 (ip), vehicle: other): 291 % of control
- T/C (endpoint: mean survival time, dose: 200.0 mg/kg/injection, schedule: Q01DX001 (ip), vehicle: saline): 283 % of control
- T/C (endpoint: mean survival time, dose: 214.0 mg/kg/injection, schedule: Q01DX001 (oral), vehicle: saline with Tween-80): 97 % of control
- T/C (endpoint: mean survival time, dose: 220.0 mg/kg/injection, schedule: Q04DX003 (oral), vehicle: saline with Tween-80): 104 % of control
- T/C (endpoint: mean survival time, dose: 225.0 mg/kg/injection, schedule: Q01DX001 (ip), vehicle: saline with Tween-80): 249 % of control
- T/C (endpoint: mean survival time, dose: 250.0 mg/kg/injection, schedule: Q01DX001 (ip), vehicle: other): 175 % of control and 210 % of control and 234 % of control
- T/C (endpoint: mean survival time, dose: 320.0 mg/kg/injection, schedule: Q01DX001 (oral), vehicle: saline with Tween-80): 108 % of control
- T/C (endpoint: mean survival time, dose: 337.0 mg/kg/injection, schedule: Q01DX001 (ip), vehicle: saline with Tween-80): 172 % of control
- T/C (endpoint: mean survival time, dose: 400.0 mg/kg/injection, schedule: Q01DX001 (ip), vehicle: saline): 156 % of control
- T/C (endpoint: mean survival time, dose: 480.0 mg/kg/injection, schedule: Q01DX001 (oral), vehicle: saline with Tween-80): 101 % of control
- T/C (endpoint: median survival time, dose: 75.0 mg/kg/injection, schedule: Q01DX001 (ip), vehicle: saline): 288 % of control
- T/C (endpoint: median survival time, dose: 150.0 mg/kg/injection, schedule: Q01DX001 (ip), vehicle: saline): 288 % of control
- T/C (endpoint: median survival time, dose: 300.0 mg/kg/injection, schedule: Q01DX001 (ip), vehicle: none): 98 % of control
- T/C (endpoint: median survival time, dose: 300.0 mg/kg/injection, schedule: Q01DX001 (ip), vehicle: saline): 94 % of control

Structure (SMILES): COc1ccc2c3c1OC1C(O)CCC4C(C2)N(C)CCC341 (stereo unspecified)
- T/C (endpoint: mean survival time, dose: 75.0 mg/kg/injection, schedule: Q01DX001 (ip), vehicle: saline): 92 % of control
- T/C (endpoint: mean survival time, dose: 100.0 mg/kg/injection, schedule: Q01DX001 (ip), vehicle: saline with Tween-80): 102 % of control
- T/C (endpoint: mean survival time, dose: 150.0 mg/kg/injection, schedule: Q01DX001 (ip), vehicle: saline): 94 % of control
- T/C (endpoint: mean survival time, dose: 200.0 mg/kg/injection, schedule: Q01DX001 (ip), vehicle: saline with Tween-80): 102 % of control
- T/C (endpoint: mean survival time, dose: 300.0 mg/kg/injection, schedule: Q01DX001 (ip), vehicle: saline): 101 % of control

Structure (SMILES): N#CSCc1ccc(CSC#N)c(Br)c1
- T/C (endpoint: mean survival time, dose: 75.0 mg/kg/injection, schedule: Q01DX009 (ip), vehicle: saline): 88 % of control

Structure (SMILES): CC1(Cl)C(=O)NN=C1c1ccc([N+](=O)[O-])cc1 (stereo unspecified)
- T/C (endpoint: mean survival time, dose: 100.0 mg/kg/injection, schedule: Q01DX001 (ip), vehicle: carboxymethylcellulose (CMC)): 102 % of control
- T/C (endpoint: mean survival time, dose: 200.0 mg/kg/injection, schedule: Q01DX001 (ip), vehicle: carboxymethylcellulose (CMC)): 102 % of control
- T/C (endpoint: mean survival time, dose: 400.0 mg/kg/injection, schedule: Q01DX001 (ip), vehicle: carboxymethylcellulose (CMC)): 105 % of control

Structure (SMILES): COC(=O)N1C(c2ccccc2)CS1(=O)=O (stereo unspecified)
- T/C (endpoint: mean survival time, dose: 25.0 mg/kg/injection, schedule: Q04DX002 (ip), vehicle: Klucel (hydroxypropylcellulose) (HPC)): 106 % of control
- T/C (endpoint: mean survival time, dose: 50.0 mg/kg/injection, schedule: Q04DX002 (ip), vehicle: Klucel (hydroxypropylcellulose) (HPC)): 113 % of control
- T/C (endpoint: mean survival time, dose: 100.0 mg/kg/injection, schedule: Q04DX002 (ip), vehicle: Klucel (hydroxypropylcellulose) (HPC)): 97 % of control and 109 % of control

— PubChem BioAssay AID248 (DTP/NCI, 2004)
